Values belong to the molecule of their own block, whether it stands above or below them. Ends that are not written are not given here.
What was measured:
[1] = tested on: spontaneously hypertensive rats (SHRs); test: Antihypertensive effect in vivo, tail-cuff SBP and DBP; parameters: species or system rat; settings: positive control, oral 14 mg/kg/body weight once daily, throughout the experiment period
Experimental: The antihypertensive effect of the synthesized peptide was determined as per the same procedure described by Zheng et al.. Briefly, spontaneously hypertensive rats (SHRs, male, 12 weeks age) were purchased from VRL Animal Technology Co., Ltd. (Beijing, China). The SHRs were randomly divided into positive control group, low-, middle- and high-dosage groups, and negative control group. Each group contains four rats. […] In addition, SHRs in the negative group were orally given saline (0.9%). After an adaptation period of one week, the weight, systolic blood pressure (SBP) and diastolic blood pressure (DBP) of SHRs were measured using the tail-cuff method once week. Moreover, the animal experiment was conducted in conformity with institutional guidelines for the care and use of laboratory animals in Shanxi University of Chinese Medicine, Taiyuan, China. All the rats received human care conforming to the National Institutes of Health Guide for care and Use of Laboratory Animals (Publication No. 85-23, revised 1985).

ACE (from rabbit lung) = biological target: T1, ACE (from rabbit lung) (Oryctolagus cuniculus, UniProt P12822); test: ACE-inhibitory activity assay (HHL substrate, method of Jimsheena and Gowda); type: biochemical; settings: synthesized peptide; calculated from regression y = 12.464 ln(x) − 28.656
T1 construct: ACE (from rabbit lung); purchased Sigma Co., St. Louis, MO, USA; host or cells: rabbit lung (tissue-derived)
T1 sequence (P12822 34-1310): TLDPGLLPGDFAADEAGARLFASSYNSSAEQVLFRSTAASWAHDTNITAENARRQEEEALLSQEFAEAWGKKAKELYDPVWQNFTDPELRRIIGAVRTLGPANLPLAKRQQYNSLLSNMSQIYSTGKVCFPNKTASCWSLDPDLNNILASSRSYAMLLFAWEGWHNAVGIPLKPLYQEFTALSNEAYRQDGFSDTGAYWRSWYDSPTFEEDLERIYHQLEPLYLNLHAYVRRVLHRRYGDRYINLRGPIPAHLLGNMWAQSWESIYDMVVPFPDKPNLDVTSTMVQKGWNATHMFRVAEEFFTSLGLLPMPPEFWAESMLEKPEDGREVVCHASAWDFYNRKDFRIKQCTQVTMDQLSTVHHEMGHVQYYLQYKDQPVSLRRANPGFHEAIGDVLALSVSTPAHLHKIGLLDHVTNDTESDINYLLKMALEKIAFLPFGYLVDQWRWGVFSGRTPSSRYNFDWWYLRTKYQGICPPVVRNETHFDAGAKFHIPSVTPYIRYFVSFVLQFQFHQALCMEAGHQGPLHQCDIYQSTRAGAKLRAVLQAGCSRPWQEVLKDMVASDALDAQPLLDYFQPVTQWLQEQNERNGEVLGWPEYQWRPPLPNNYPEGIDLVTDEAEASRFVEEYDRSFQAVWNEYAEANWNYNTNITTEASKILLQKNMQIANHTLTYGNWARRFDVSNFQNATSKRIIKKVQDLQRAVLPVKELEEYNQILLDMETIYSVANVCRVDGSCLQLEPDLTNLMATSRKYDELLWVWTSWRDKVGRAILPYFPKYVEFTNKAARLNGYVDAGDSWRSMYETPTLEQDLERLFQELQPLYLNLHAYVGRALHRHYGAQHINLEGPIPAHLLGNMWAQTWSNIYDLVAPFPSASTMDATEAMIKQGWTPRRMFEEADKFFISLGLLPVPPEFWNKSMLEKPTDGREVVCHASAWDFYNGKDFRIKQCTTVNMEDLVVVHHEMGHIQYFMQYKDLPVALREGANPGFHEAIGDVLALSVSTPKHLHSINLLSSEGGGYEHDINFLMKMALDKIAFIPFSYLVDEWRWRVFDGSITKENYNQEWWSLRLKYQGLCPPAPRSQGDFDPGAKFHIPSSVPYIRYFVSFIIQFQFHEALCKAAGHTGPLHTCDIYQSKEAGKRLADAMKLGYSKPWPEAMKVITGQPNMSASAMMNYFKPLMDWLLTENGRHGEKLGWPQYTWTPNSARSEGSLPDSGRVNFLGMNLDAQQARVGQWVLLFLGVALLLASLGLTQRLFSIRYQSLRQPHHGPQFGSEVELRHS
Excerpt: Areca nut kernel was purchased from Sanpo Palm Ground Part Co., Haikou, China. Cellulase (from Trichoderma viride G, 3.0 × 10^5 U), trypsin (5 × 10^[…]) and alcalase (1 × 10^[…]) were purchased from Tian Keji Co., Ltd. (Tianjin, China). EA.hy926 cells were purchased from the Type Culture Collection of the Chinese Academy of Sciences, Shanghai, China. Captopril, ACE (from rabbit lung) and N-Hippuryl-His-Leu hydrate (HHL) were purchased from Sigma Co., St. Louis, MO, USA. Endothelin-1 Elisa kit was from Pensui Biotech Co. (Wuhan, China). DMEM (Dulbecco's modified Eagle's medium) were obtained from JiQing Biotech. Co., Ltd. (Nanjing, China). Other chemicals and reagents were of analytical grade and purchased from Peisu Co., Ltd. (Xi'an, China). ACE-inhibitory activity was determined using the same procedure as described by Jimsheena and Gowda. The concentration of the sample required for inhibiting 50% of ACE activity was defined as IC50 value. The ACE inhibition kinetics of peptides identified in ANKGH was analyzed by Lineweaver-Burk plots of 1/V versus 1/HHL in the presence of the inhibitor [17]. The concentrations of HHL (N-hippuryl-His-Leu hydrate) used were 0.76 to 7.60 mM.

ACE = tested on: ACE; parameters: method as in 2 sources, one per row (each row's own in cited_ref): ref 18 = [18]; PMID 29606478; doi:10.1016/j.foodchem.2018.02.107; 18. Tu M. Wang C. Chen C. Zhang R. Liu H. Lu W. Jiang L. Du M. Identification of a novel ACE-inhibitory peptide from casein and evaluation of the inhibitory mechanisms Food Chem. 2018 256 98 104 10.10 ||| ref 20 = [20]; PMID 30229250; doi:10.1039/C8FO00569A; 20. Ling Y. Sun L.P. Zhuang Y.L. Preparation and identification of novel inhibitory angiotensin-I-converting enzyme peptides from tilapia skin gelatin hydrolysates: Inhibition kinetics and molecular d; settings: peptide identified in casein protein; cited from earlier work

Molecule: C[C@H](CS)C(=O)N1CCC[C@H]1C(=O)O [Captopril]
- DBP of SHRs among all test groups [1]: lowest
- SBP of SHRs among all test groups [1]: lowest

- IC50 (ACE (from rabbit lung)): 550 µM
Molecule: APKIEEV [APKIEEV, Ala–Pro–Lys–Ile–Glu–Glu–Val]

Molecule: NMAINPSKENLCSTFCK
- IC50 (ACE): 129 µM

Source: PMC8199471, “Identification, Characterization and Antihypertensive Effect In Vivo of a Novel ACE-Inhibitory Heptapeptide from Defatted Areca Nut Kernel Globulin Hydrolysates” (Molecules, 2021)
